# Test results published in PMC7910608, “Tuning flavin environment to detect and control light-induced conformational switching in Drosophila cryptochrome” (Communications Biology, 2021).
# Tests used:
# Format in all cases: binding
# dCRY; dCRY(WT)-SORTC-SL [1] = biological target: T1, dCRY; dCRY(WT)-SORTC-SL (Drosophila melanogaster, UniProt O77059, H378K/L405E/C416N); test: cw-ESR, UV-vis and 4P-DEER of bound flavin after blue light; conditions: pH 8; neutral semiquinone formed in light
# T1 construct: gene cry; full length, N-terminal twin-Strep tag, C-terminal sort-tag (LPGTG) ligated to GGGGC-nitroxide (LPGTGGGGC); E. coli CmpX13
# T1 sequence (O77059 1-539 H378K/L405E/C416N): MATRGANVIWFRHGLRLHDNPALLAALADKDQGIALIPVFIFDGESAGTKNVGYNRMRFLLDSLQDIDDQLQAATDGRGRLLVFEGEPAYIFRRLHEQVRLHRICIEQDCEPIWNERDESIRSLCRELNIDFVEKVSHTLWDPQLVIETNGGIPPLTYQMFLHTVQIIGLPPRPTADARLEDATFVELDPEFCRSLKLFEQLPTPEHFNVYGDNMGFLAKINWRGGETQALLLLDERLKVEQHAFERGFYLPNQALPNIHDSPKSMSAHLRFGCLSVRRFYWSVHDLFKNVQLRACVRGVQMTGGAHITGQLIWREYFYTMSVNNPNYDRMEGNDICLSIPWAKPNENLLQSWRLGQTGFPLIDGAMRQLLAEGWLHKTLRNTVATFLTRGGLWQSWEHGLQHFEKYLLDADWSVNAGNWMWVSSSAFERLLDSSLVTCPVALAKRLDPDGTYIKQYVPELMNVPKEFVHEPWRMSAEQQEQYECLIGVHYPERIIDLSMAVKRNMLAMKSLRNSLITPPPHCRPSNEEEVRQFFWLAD
# dCRY; dCRY(WT)-SORTC-SL [2] = biological target: T2, dCRY; dCRY(WT)-SORTC-SL (Drosophila melanogaster, UniProt O77059, H378R); test: as above; conditions: pH 8; anionic semiquinone formed in light
# T2 construct: gene cry; full length, N-terminal twin-Strep tag, C-terminal sort-tag (LPGTG) ligated to GGGGC-nitroxide (LPGTGGGGC); E. coli CmpX13
# T2 sequence (O77059 1-539 H378R): as the sequence (O77059 1-539 H378K/L405E/C416N) above, with K378R, E405L, N416C counted along it
# dCRY; dCRY(WT)-SORTC-SL [3] = biological target: T3, dCRY; dCRY(WT)-SORTC-SL (Drosophila melanogaster, UniProt O77059, H378N); test: as above; conditions: pH 8; anionic semiquinone formed in light
# T3 construct: gene cry; full length, N-terminal twin-Strep tag, C-terminal sort-tag (LPGTG) ligated to GGGGC-nitroxide (LPGTGGGGC); E. coli CmpX13
# T3 sequence (O77059 1-539 H378N): as the sequence (O77059 1-539 H378K/L405E/C416N) above, with K378N, E405L, N416C counted along it
# dCRY; dCRY(WT)-SORTC-SL [4] = biological target: T4, dCRY; dCRY(WT)-SORTC-SL (Drosophila melanogaster, UniProt O77059, H378R/L405E/C416N); test: as above; conditions: pH 8; neutral semiquinone formed in light
# T4 construct: gene cry; full length, N-terminal twin-Strep tag, C-terminal sort-tag (LPGTG) ligated to GGGGC-nitroxide (LPGTGGGGC); E. coli CmpX13
# T4 sequence (O77059 1-539 H378R/L405E/C416N): as the sequence (O77059 1-539 H378K/L405E/C416N) above, with K378R counted along it
# dCRY; dCRY(WT)-SORTC-SL [5] = biological target: T5, dCRY; dCRY(WT)-SORTC-SL (Drosophila melanogaster, UniProt O77059, H378N/L405E/C416N); test: as above; conditions: pH 8; neutral semiquinone formed in light
# T5 construct: gene cry; full length, N-terminal twin-Strep tag, C-terminal sort-tag (LPGTG) ligated to GGGGC-nitroxide (LPGTGGGGC); E. coli CmpX13
# T5 sequence (O77059 1-539 H378N/L405E/C416N): as the sequence (O77059 1-539 H378K/L405E/C416N) above, with K378N counted along it
# dCRY; dCRY(WT)-SORTC-SL [6] = biological target: T6, dCRY; dCRY(WT)-SORTC-SL (Drosophila melanogaster, UniProt O77059, H378K); test: as above; conditions: pH 8; anionic semiquinone formed in light
# T6 construct: gene cry; full length, N-terminal twin-Strep tag, C-terminal sort-tag (LPGTG) ligated to GGGGC-nitroxide (LPGTGGGGC); E. coli CmpX13
# T6 sequence (O77059 1-539 H378K): as the sequence (O77059 1-539 H378K/L405E/C416N) above, with E405L, N416C counted along it
# dCRY; dCRY(WT)-SORTC-SL [7] = biological target: T7, dCRY; dCRY(WT)-SORTC-SL (Drosophila melanogaster, UniProt O77059, L405E/C416N); test: UV-vis, ENDOR and cw-ESR of bound flavin, blue-light photoreduction; conditions: pH 8; neutral semiquinone formed in light
# T7 construct: gene cry; full length, N-terminal twin-Strep tag, C-terminal sort-tag (LPGTG) ligated to GGGGC-nitroxide (LPGTGGGGC); E. coli CmpX13
# T7 sequence (O77059 1-539 L405E/C416N): as the sequence (O77059 1-539 H378K/L405E/C416N) above, with K378H counted along it
# dCRY; dCRY(WT)-SORTC-SL [8] = biological target: T8, dCRY; dCRY(WT)-SORTC-SL (Drosophila melanogaster, UniProt O77059); test: X-ray crystal structure, […] A; also UV-vis and ENDOR; conditions: dark state; crystals at pH 9; magnesium
# T8 construct: gene cry; full length, N-terminal twin-Strep tag, C-terminal sort-tag (LPGTG) ligated to GGGGC-nitroxide (LPGTGGGGC); E. coli CmpX13
# T8 sequence (O77059 1-539): as the sequence (O77059 1-539 H378K/L405E/C416N) above, with K378H, E405L, N416C counted along it
structure (smiles),measurement,setting,value
Cc1cc2nc3c(=O)[nH]c(=O)nc-3n(C[C@H](O)[C@H](O)[C@H](O)COP(=O)(O)OP(=O)(O)OC[C@H]3O[C@@H](n4cnc5c(N)ncnc54)[C@H](O)[C@@H]3O)c2cc1C [FAD],"cw-ESR, UV-vis and 4P-DEER of bound flavin after blue light",dCRY; dCRY(WT)-SORTC-SL [1],"triple substitutions (H378K/N/R, L405E, and C416N) led to NSQ formation"
same,"cw-ESR, UV-vis and 4P-DEER of bound flavin after blue light",dCRY; dCRY(WT)-SORTC-SL [2],H378 substitutions (H378K/N/R) led to ASQ formation
same,"cw-ESR, UV-vis and 4P-DEER of bound flavin after blue light",dCRY; dCRY(WT)-SORTC-SL [3],H378 substitutions (H378K/N/R) led to ASQ formation
same,"cw-ESR, UV-vis and 4P-DEER of bound flavin after blue light",dCRY; dCRY(WT)-SORTC-SL [4],"triple substitutions (H378K/N/R, L405E, and C416N) led to NSQ formation"
same,"cw-ESR, UV-vis and 4P-DEER of bound flavin after blue light",dCRY; dCRY(WT)-SORTC-SL [5],"triple substitutions (H378K/N/R, L405E, and C416N) led to NSQ formation"
same,"cw-ESR, UV-vis and 4P-DEER of bound flavin after blue light",dCRY; dCRY(WT)-SORTC-SL [6],H378 substitutions (H378K/N/R) led to ASQ formation
same,"UV-vis, ENDOR and cw-ESR of bound flavin, blue-light photoreduction",dCRY; dCRY(WT)-SORTC-SL [7],Both WT dCRY and L405E/C416N show characteristic absorption bands of oxidized FAD in the dark
same,"X-ray crystal structure, 2.58 A; also UV-vis and ENDOR",dCRY; dCRY(WT)-SORTC-SL [8],The crystal structure of dCRY-WT-SORTC-SL in the dark state shows that the active site FAD
